# According to PubChem BioAssay (NCI):
#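 These data come from cells grown in 96-well plates and exposed to compound for 48 hours at five concentrations. GI50: concentration for 50% inhibition of growth. At the TGI there is no net growth.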
# Tests used:
# Assay in all cases: NCI anticancer screen, dose series, 48 h
# HCT-15 colon = test system: HCT-15 colon
# M14 melanoma = test system: M14 melanoma
# LOX IMVI melanoma = test system: LOX IMVI melanoma
# SW-620 colon = test system: SW-620 colon
# SF-539 CNS = test system: SF-539 CNS
# UACC-62 melanoma = test system: UACC-62 melanoma
# A498 renal = test system: A498 renal
# RPMI-8226 leukemia = test system: RPMI-8226 leukemia
# HL-60(TB) leukemia = test system: HL-60(TB) leukemia
# MALME-3M melanoma = test system: MALME-3M melanoma
# MDA-MB-435 = test system: MDA-MB-435
# SK-MEL-2 melanoma = test system: SK-MEL-2 melanoma
# K-562 leukemia = test system: K-562 leukemia
# ACHN renal = test system: ACHN renal
# NCI-H226 lung = test system: NCI-H226 lung
# UO-31 renal = test system: UO-31 renal
# NCI-H460 lung = test system: NCI-H460 lung
# U251 CNS = test system: U251 CNS
# RXF 393 renal = test system: RXF 393 renal
# NCI-H23 lung = test system: NCI-H23 lung
# MDA-MB-231 breast = test system: MDA-MB-231 breast
# CCRF-CEM leukemia = test system: CCRF-CEM leukemia
# SK-OV-3 ovarian = test system: SK-OV-3 ovarian
# MCF7 breast = test system: MCF7 breast
# SK-MEL-28 melanoma = test system: SK-MEL-28 melanoma
# OVCAR-3 ovarian = test system: OVCAR-3 ovarian
# T-47D breast = test system: T-47D breast
# PC-3 prostate = test system: PC-3 prostate
# EKVX NSCLC = test system: EKVX NSCLC
# TK-10 renal = test system: TK-10 renal
# SF-295 CNS = test system: SF-295 CNS
# 786-0 renal = test system: 786-0 renal
# HS 578T breast = test system: HS 578T breast
# SN12C renal = test system: SN12C renal
# SNB-19 CNS = test system: SNB-19 CNS
# HCT-116 colon = test system: HCT-116 colon
# UACC-257 melanoma = test system: UACC-257 melanoma
# MOLT-4 leukemia = test system: MOLT-4 leukemia
# SF-268 CNS = test system: SF-268 CNS
# SK-MEL-5 melanoma = test system: SK-MEL-5 melanoma
# HT29 colon = test system: HT29 colon
# IGROV1 ovarian = test system: IGROV1 ovarian
# COLO 205 colon = test system: COLO 205 colon
# BT-549 breast = test system: BT-549 breast
# KM12 colon = test system: KM12 colon
# MDA-N = test system: MDA-N
# OVCAR-8 ovarian = test system: OVCAR-8 ovarian
# DU-145 prostate = test system: DU-145 prostate
# CAKI-1 renal = test system: CAKI-1 renal
# NCI/ADR-RES ovarian = test system: NCI/ADR-RES ovarian
# OVCAR-5 ovarian = test system: OVCAR-5 ovarian
# HOP-92 NSCLC = test system: HOP-92 NSCLC
# OVCAR-4 ovarian = test system: OVCAR-4 ovarian
# SNB-75 CNS = test system: SNB-75 CNS
# HOP-62 NSCLC = test system: HOP-62 NSCLC
# HCC-2998 colon = test system: HCC-2998 colon
# A549 NSCLC = test system: A549 NSCLC
# SR leukemia = test system: SR leukemia
# NCI-H522 lung = test system: NCI-H522 lung
smiles,measurement,setting,value
CC1CC/C(=C\c2ccc(F)cc2)C2=C1C(c1ccc(F)cc1)N1C(=O)CSC1=N2 (centres undefined),TGI,HCT-15 colon,> 100 µM
same,TGI,M14 melanoma,> 100 µM
same,TGI,LOX IMVI melanoma,> 100 µM
same,TGI,SW-620 colon,> 100 µM
same,TGI,SF-539 CNS,> 100 µM
same,TGI,UACC-62 melanoma,> 100 µM
same,TGI,A498 renal,> 100 µM
same,TGI,RPMI-8226 leukemia,> 100 µM
same,TGI,HL-60(TB) leukemia,> 100 µM
same,TGI,MALME-3M melanoma,> 100 µM
same,TGI,MDA-MB-435,> 100 µM
same,TGI,SK-MEL-2 melanoma,> 100 µM
same,TGI,K-562 leukemia,> 100 µM
same,TGI,ACHN renal,> 100 µM
same,TGI,NCI-H226 lung,> 100 µM
same,TGI,UO-31 renal,> 100 µM
same,TGI,NCI-H460 lung,> 100 µM
same,TGI,U251 CNS,> 100 µM
same,TGI,RXF 393 renal,> 100 µM
same,TGI,NCI-H23 lung,> 100 µM
same,TGI,MDA-MB-231 breast,> 100 µM
same,TGI,CCRF-CEM leukemia,> 100 µM
same,TGI,SK-OV-3 ovarian,> 100 µM
same,TGI,MCF7 breast,> 100 µM
same,TGI,SK-MEL-28 melanoma,> 100 µM
same,TGI,OVCAR-3 ovarian,> 100 µM
same,TGI,T-47D breast,> 100 µM
same,TGI,PC-3 prostate,> 100 µM
same,TGI,EKVX NSCLC,> 100 µM
same,TGI,TK-10 renal,> 100 µM
same,TGI,SF-295 CNS,> 100 µM
same,TGI,786-0 renal,> 100 µM
same,TGI,HS 578T breast,> 100 µM
same,TGI,SN12C renal,> 100 µM
same,TGI,SNB-19 CNS,> 100 µM
same,TGI,HCT-116 colon,> 100 µM
same,TGI,UACC-257 melanoma,> 100 µM
same,TGI,MOLT-4 leukemia,60.6 µM
same,TGI,SF-268 CNS,> 100 µM
same,TGI,SK-MEL-5 melanoma,> 100 µM
same,TGI,HT29 colon,> 100 µM
same,TGI,IGROV1 ovarian,> 100 µM
same,TGI,COLO 205 colon,> 100 µM
same,TGI,BT-549 breast,> 100 µM
same,TGI,KM12 colon,> 100 µM
same,TGI,MDA-N,> 100 µM
same,TGI,OVCAR-8 ovarian,> 100 µM
same,TGI,DU-145 prostate,> 100 µM
same,TGI,CAKI-1 renal,> 100 µM
same,TGI,NCI/ADR-RES ovarian,> 100 µM
COc1ccc(C(=O)Cn2c(C(=O)c3ccccc3)nc3ccccc32)cc1,GI50,HCT-15 colon,1.24 µM
same,TGI,HCT-15 colon,> 100 µM
same,GI50,M14 melanoma,2.93 µM
same,TGI,M14 melanoma,> 100 µM
same,GI50,LOX IMVI melanoma,5.18 µM
same,TGI,LOX IMVI melanoma,> 100 µM
same,GI50,SW-620 colon,1.15 µM
same,TGI,SW-620 colon,> 100 µM
same,GI50,OVCAR-5 ovarian,> 26.1 µM
same,TGI,OVCAR-5 ovarian,> 100 µM
same,GI50,HOP-92 NSCLC,> 100 µM
same,TGI,HOP-92 NSCLC,> 100 µM
same,GI50,SF-539 CNS,3.03 µM
same,TGI,SF-539 CNS,> 100 µM
same,TGI,UACC-62 melanoma,> 100 µM
same,GI50,A498 renal,2.9 µM
same,TGI,A498 renal,> 100 µM
same,GI50,RPMI-8226 leukemia,3.05 µM
same,TGI,RPMI-8226 leukemia,> 28.8 µM
same,GI50,OVCAR-4 ovarian,9.9 µM
same,TGI,OVCAR-4 ovarian,> 100 µM
same,GI50,SNB-75 CNS,4.61 µM
same,TGI,SNB-75 CNS,> 100 µM
same,GI50,HL-60(TB) leukemia,0.916 µM
same,TGI,HL-60(TB) leukemia,> 22.9 µM
same,GI50,HOP-62 NSCLC,6.57 µM
same,TGI,HOP-62 NSCLC,> 100 µM
same,TGI,MALME-3M melanoma,> 100 µM
same,GI50,MDA-MB-435,0.304 µM
same,TGI,MDA-MB-435,1.87 µM
same,TGI,SK-MEL-2 melanoma,> 100 µM
same,GI50,K-562 leukemia,0.54 µM
same,TGI,K-562 leukemia,> 100 µM
same,GI50,ACHN renal,6.23 µM
same,TGI,ACHN renal,> 100 µM
same,GI50,NCI-H226 lung,> 90.5 µM
same,TGI,NCI-H226 lung,> 100 µM
same,GI50,UO-31 renal,13.3 µM
same,TGI,UO-31 renal,> 100 µM
same,GI50,NCI-H460 lung,3.39 µM
same,TGI,NCI-H460 lung,> 100 µM
same,GI50,U251 CNS,3.62 µM
same,TGI,U251 CNS,> 100 µM
same,GI50,RXF 393 renal,2.38 µM
same,TGI,RXF 393 renal,> 22.2 µM
same,GI50,NCI-H23 lung,5.08 µM
same,TGI,NCI-H23 lung,> 100 µM
same,GI50,MDA-MB-231 breast,7.38 µM
same,TGI,MDA-MB-231 breast,> 100 µM
same,GI50,CCRF-CEM leukemia,2.87 µM
same,TGI,CCRF-CEM leukemia,> 58.1 µM
same,GI50,HCC-2998 colon,3.2 µM
same,TGI,HCC-2998 colon,> 100 µM
same,GI50,SK-OV-3 ovarian,6.58 µM
same,TGI,SK-OV-3 ovarian,> 100 µM
same,GI50,MCF7 breast,1.35 µM
same,TGI,MCF7 breast,> 100 µM
same,GI50,SK-MEL-28 melanoma,3.91 µM
same,TGI,SK-MEL-28 melanoma,> 100 µM
same,GI50,A549 NSCLC,6.05 µM
same,TGI,A549 NSCLC,> 100 µM
same,GI50,OVCAR-3 ovarian,2.59 µM
same,TGI,OVCAR-3 ovarian,> 21.6 µM
same,GI50,T-47D breast,3.87 µM
same,TGI,T-47D breast,> 100 µM
same,GI50,PC-3 prostate,4.56 µM
same,TGI,PC-3 prostate,> 100 µM
same,GI50,EKVX NSCLC,7.21 µM
same,TGI,EKVX NSCLC,> 100 µM
same,GI50,TK-10 renal,11 µM
same,TGI,TK-10 renal,> 100 µM
same,GI50,SR leukemia,0.763 µM
same,GI50,SF-295 CNS,3.19 µM
same,TGI,SF-295 CNS,> 100 µM
same,GI50,786-0 renal,9.31 µM
same,TGI,786-0 renal,> 100 µM
same,GI50,HS 578T breast,2.81 µM
same,TGI,HS 578T breast,> 100 µM
same,GI50,SN12C renal,> 27.7 µM
same,TGI,SN12C renal,> 100 µM
same,GI50,SNB-19 CNS,6.74 µM
same,TGI,SNB-19 CNS,> 100 µM
same,GI50,HCT-116 colon,2.25 µM
same,TGI,HCT-116 colon,> 100 µM
same,GI50,UACC-257 melanoma,> 100 µM
same,TGI,UACC-257 melanoma,> 100 µM
same,GI50,MOLT-4 leukemia,1.87 µM
same,TGI,MOLT-4 leukemia,> 100 µM
same,GI50,SF-268 CNS,4.18 µM
same,TGI,SF-268 CNS,> 100 µM
same,GI50,SK-MEL-5 melanoma,2.06 µM
same,TGI,SK-MEL-5 melanoma,6.06 µM
same,GI50,HT29 colon,1.25 µM
same,TGI,HT29 colon,> 100 µM
same,GI50,IGROV1 ovarian,6.19 µM
same,TGI,IGROV1 ovarian,> 100 µM
same,GI50,COLO 205 colon,5.12 µM
same,TGI,COLO 205 colon,> 100 µM
same,GI50,BT-549 breast,5.9 µM
same,TGI,BT-549 breast,> 100 µM
same,GI50,KM12 colon,1.64 µM
same,TGI,KM12 colon,> 100 µM
same,GI50,OVCAR-8 ovarian,10.2 µM
same,TGI,OVCAR-8 ovarian,> 100 µM
same,GI50,NCI-H522 lung,2.16 µM
same,TGI,NCI-H522 lung,> 26.7 µM
same,GI50,DU-145 prostate,4.61 µM
same,TGI,DU-145 prostate,> 100 µM
same,GI50,CAKI-1 renal,> 100 µM
same,TGI,CAKI-1 renal,> 100 µM
same,GI50,NCI/ADR-RES ovarian,1.49 µM
O=C(COc1ccc(OCC(=O)N2C(=O)CC(=O)N(c3ccc(Cl)cc3)C2=S)cc1)N1C(=O)CC(=O)N(c2ccc(Cl)cc2)C1=S,TGI,HCT-15 colon,> 100 µM
same,TGI,M14 melanoma,> 100 µM
same,TGI,SW-620 colon,> 100 µM
same,TGI,OVCAR-5 ovarian,> 100 µM
same,TGI,HOP-92 NSCLC,70.4 µM
same,TGI,UACC-62 melanoma,60.5 µM
same,TGI,A498 renal,> 100 µM
same,TGI,RPMI-8226 leukemia,> 100 µM
same,TGI,OVCAR-4 ovarian,> 100 µM
same,TGI,SNB-75 CNS,> 100 µM
same,TGI,MALME-3M melanoma,93.5 µM
same,TGI,MDA-MB-435,> 100 µM
same,TGI,SK-MEL-2 melanoma,> 100 µM
same,TGI,K-562 leukemia,> 100 µM
same,TGI,ACHN renal,> 100 µM
same,TGI,NCI-H226 lung,85.7 µM
same,TGI,UO-31 renal,> 100 µM
same,TGI,NCI-H460 lung,> 100 µM
same,TGI,U251 CNS,> 100 µM
same,TGI,RXF 393 renal,83.1 µM
same,TGI,NCI-H23 lung,> 100 µM
same,TGI,MDA-MB-231 breast,> 100 µM
same,TGI,HCC-2998 colon,> 100 µM
same,TGI,SK-OV-3 ovarian,> 100 µM
same,TGI,MCF7 breast,> 100 µM
same,TGI,SK-MEL-28 melanoma,> 100 µM
same,TGI,A549 NSCLC,> 100 µM
same,TGI,PC-3 prostate,> 100 µM
same,TGI,EKVX NSCLC,> 100 µM
same,TGI,TK-10 renal,> 100 µM
same,TGI,SF-295 CNS,> 100 µM
same,TGI,786-0 renal,80.1 µM
same,TGI,SN12C renal,> 100 µM
same,TGI,SNB-19 CNS,> 100 µM
same,TGI,HCT-116 colon,25.2 µM
same,TGI,UACC-257 melanoma,> 100 µM
same,TGI,MOLT-4 leukemia,> 100 µM
same,TGI,SF-268 CNS,> 100 µM
same,TGI,SK-MEL-5 melanoma,> 100 µM
same,TGI,HT29 colon,> 100 µM
same,TGI,IGROV1 ovarian,> 100 µM
same,TGI,COLO 205 colon,38.5 µM
same,TGI,BT-549 breast,87.8 µM
same,TGI,KM12 colon,41.6 µM
same,TGI,MDA-N,97.2 µM
same,TGI,NCI-H522 lung,53.8 µM
same,TGI,DU-145 prostate,> 100 µM
same,TGI,NCI/ADR-RES ovarian,93.4 µM
